Target: T1, Dkk-1 (Mus musculus, UniProt O54908)
T1 construct: the primary circulating source of Dkk-1 in during both homeostatic and allergen-challenged conditions is platelets; from tissue; host or cells: living C57BL/6 mice; circulating Dkk-1 released from platelets
T1 sequence (O54908 32-272): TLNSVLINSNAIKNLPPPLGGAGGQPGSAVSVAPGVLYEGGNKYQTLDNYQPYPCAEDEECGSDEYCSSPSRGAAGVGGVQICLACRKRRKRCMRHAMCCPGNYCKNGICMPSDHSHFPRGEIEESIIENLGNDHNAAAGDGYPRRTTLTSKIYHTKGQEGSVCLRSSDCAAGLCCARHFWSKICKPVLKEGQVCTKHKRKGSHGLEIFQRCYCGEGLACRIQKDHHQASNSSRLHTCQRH
Experiment: House dust mite (HDM)-induced asthma model
Type: in vivo, mice
Excerpt: FIG. 1, comprising FIG. 1A through FIG. 1F, depicts results of experiments showing the characterization of Dkk-1^d/d mice. FIG. 1A depicts flow cytometry analysis of single cell suspensions from spleen of six to ten week-old Dkk-1^d/d mice (n=5) and their wildtype littermate controls (n=3). FIG. 1B depicts flow cytometry analysis of single cell suspensions from bone marrow of six to ten week-old Dkk-1^d/d mice (n=5) and their wildtype littermate controls (n=3). FIG. 1C depicts ELISA analysis of splenic CD4 T cells isolated by MACS and stimulated with anti-CD3 and anti-CD28 mAb (2 μg/ml) for 4 days. FIG. 1C depicts percentage of cells in peripheral blood from ten to twelve week-old Dkk-1^d/d mice (n=5) and their wildtype littermate controls (n=5) measured by HEMAVAT analyzer. WBC (White blood cells), NE (Neutrophils), LY (Lymphocytes), MO (Monocytes), EO (Eosinophils) were counted. FIG. 1D depicts cell number in peripheral blood from ten to twelve week-old Dkk-1^d/d mice (n=5) and their wildtype littermate controls (n=5) measured by HEMAVAT analyzer. WBC (White blood cells), NE (Neutrophils), LY (Lymphocytes), MO (Monocytes), EO (Eosinophils) were counted. FIG. 1F depicts airway resistance of Dkk-1^d/d and C57Bl/6 mice. […] Control group mice (n=3) were challenged with PBS. […] Dkk-1 inhibitor (10 mg/kg) was injected intraperitoneally at day −1, +1, +6, +8, +10, and +12. Student's t-test was used. n.s, not significant. Small horizontal lines indicate the mean (±s.e.m.). *, p<0.05
FIG. 11, comprising FIG. 11A through FIG. 11J, depicts results of experiments showing Dkk-1 facilitates leukocyte migration and regulates leukocyte-platelet aggregate formation in type 2 inflammation. FIG. 11A depicts flow cytometry analysis of CD45^+ cells in lung homogenates from nine-week old Dkk-1^d/d mice and wildtype littermate controls (n=5-6/group) 72 hours after challenge with 30 μg HDM allergen extract. FIG. 11B depicts analysis of percentages of CD45^+CD41^+ cells in peripheral blood from nine-week old Dkk-1^d/d mice and wildtype littermate controls collected at 4 hours and 24 hours after allergen challenge. FIG. 11C depicts flow cytometry analysis of CD45+ cells after Dkk-1 protein (300 ng/mouse) was injected intraperitoneally. FIG. 11D depicts a schematic diagram of Dkk-1 inhibitor treatment protocol for each group (n=5 for each group) in the HDM-induced asthma model. HDM allergen extract (10 μg) was challenged intranasally at the indicated time points. FIG. 11E depicts analysis of CD45^+ leukocytes numbers in BALF and Lung after Dkk-1 inhibitor treatment in the HDM-induced asthma model. FIG. 11F depicts analysis of neutrophils, eosinophils, and CD4 T cell numbers in the lungs after Dkk-1 inhibitor treatment in the HDM-induced asthma model. FIG. 11G depicts analysis of the number of CD4 T cells in mediastinal LNs. FIG. 11H depicts ELISA analysis of cytokines after 4 days of stimulation of med LN cells. FIG. 111 depicts scoring of H&E staining. FIG. 11J depicts scoring of PAS staining.
FIG. 13, comprising FIG. 13A through FIG. 13C, depicts results of experiments showing pharmacological antagonism of Dkk-1 in the HDM-induced asthma model. FIG. 13A depicts neutrophils and eosinophils in BALF. FIG. 13B depicts CD4 T cell percentages in med LNs measured by flow cytometry. FIG. 13C depicts representative images H&E and PAS staining. One-way ANOVA analysis with Dunnet's post-hoc test was performed. **, p<0.005, *, p<0.05.
FIG. 18 depicts results of experiments showing a Dkk-1 monoclonal antibody treatment protects […] mice from house dust mite (HDM)-induced asthma. Six-week-old female C57Bl/6 mice were treated with PBS(n=4), HDM(n=5), HDM and isotype antibody (n=5), and HDM plus Dkk-1 mAb (n=5). 10 μg of HDM was treated intranasally on day 0, 7, 8, 9, 10 and 11. Isotype antibody or Dkk-1 mAb was treated on day −1, +1, +6, +8, and +10. On day 14, mice were sacrificed and the lungs were harvested. fHCD45+ leukocytes were counted by flow cytometry. […]

NCC1CCN(c2nccc(-c3ccc4ccccc4c3)n2)CC1 [WAY-262611, (1-(4-(naphthalen-2-yl)pyrimidin-2-yl)piperidin-4-yl)methanamine]
airway resistance increase by HDM (C57Bl/6 mice, Dkk-1 inhibitor 10 mg/kg intraperitoneally, FIG. 1F): notably decreased
number of CD4 T cells in mediastinal lymph nodes (FIG. 11G): reduced
Leukocyte infiltration including CD4 T cells, neutrophils, and eosinophils in BAL fluid and lung tissues (both ET (early treatment) and LT (late treatment) protocols, FIG. 11E, 11F, 13A): markedly decreased
histopathological scores (H&E, PAS) (challenge stage or sensitization stage treatment, FIG. 11I, 11J, 13C): inhibition of type 2 inflammatory responses
TH2 cytokine secretion from mediastinal lymph nodes (ex vivo stimulation of med LN cells 4 days, FIG. 11H): diminished
percentage of CD4 T cells in the lymph nodes (mediastinal lymph nodes, FIG. 13): did not change

From US11135223B2, “Compositions and methods for inhibiting Dkk-1” (YALE UNIVERSITY, priority 2016, dated 2021)
